Experimental data published in ChEMBL document CHEMBL3217709, “SAR mining and its application to the design of TRPA1 antagonists” (Medchemcomm, 2012).

Key:
Adenosine receptor A2b = target: T1, Adenosine receptor A2b (Homo sapiens, UniProt P29275); assay: Antagonist activity at adenosine A2B receptor (unknown origin)
T1 sequence (P29275 whole entry): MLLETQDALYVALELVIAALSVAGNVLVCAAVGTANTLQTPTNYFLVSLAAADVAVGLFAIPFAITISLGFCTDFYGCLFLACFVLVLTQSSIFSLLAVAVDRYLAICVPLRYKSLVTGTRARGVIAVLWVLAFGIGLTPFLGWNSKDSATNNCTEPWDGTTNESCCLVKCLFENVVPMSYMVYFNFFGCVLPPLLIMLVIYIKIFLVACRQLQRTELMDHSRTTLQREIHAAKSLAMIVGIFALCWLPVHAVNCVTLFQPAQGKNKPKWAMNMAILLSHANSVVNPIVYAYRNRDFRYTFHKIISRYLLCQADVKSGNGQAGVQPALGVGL

[1] = target: 5-hydroxytryptamine receptor 4 (Homo sapiens, UniProt Q13639); assay: Antagonist activity at […] receptor (unknown origin)
Coagulation factor X = Coagulation factor X (Homo sapiens, UniProt P00742); assay: Inhibition of factor-10a (unknown origin)
[2] = target: Transient receptor potential cation channel subfamily A member 1 (Homo sapiens, UniProt O75762); assay: Antagonist activity at TRPA1 (unknown origin)
Chain of Transient receptor potential cation channel subfamily A member 1 (O75762 whole entry): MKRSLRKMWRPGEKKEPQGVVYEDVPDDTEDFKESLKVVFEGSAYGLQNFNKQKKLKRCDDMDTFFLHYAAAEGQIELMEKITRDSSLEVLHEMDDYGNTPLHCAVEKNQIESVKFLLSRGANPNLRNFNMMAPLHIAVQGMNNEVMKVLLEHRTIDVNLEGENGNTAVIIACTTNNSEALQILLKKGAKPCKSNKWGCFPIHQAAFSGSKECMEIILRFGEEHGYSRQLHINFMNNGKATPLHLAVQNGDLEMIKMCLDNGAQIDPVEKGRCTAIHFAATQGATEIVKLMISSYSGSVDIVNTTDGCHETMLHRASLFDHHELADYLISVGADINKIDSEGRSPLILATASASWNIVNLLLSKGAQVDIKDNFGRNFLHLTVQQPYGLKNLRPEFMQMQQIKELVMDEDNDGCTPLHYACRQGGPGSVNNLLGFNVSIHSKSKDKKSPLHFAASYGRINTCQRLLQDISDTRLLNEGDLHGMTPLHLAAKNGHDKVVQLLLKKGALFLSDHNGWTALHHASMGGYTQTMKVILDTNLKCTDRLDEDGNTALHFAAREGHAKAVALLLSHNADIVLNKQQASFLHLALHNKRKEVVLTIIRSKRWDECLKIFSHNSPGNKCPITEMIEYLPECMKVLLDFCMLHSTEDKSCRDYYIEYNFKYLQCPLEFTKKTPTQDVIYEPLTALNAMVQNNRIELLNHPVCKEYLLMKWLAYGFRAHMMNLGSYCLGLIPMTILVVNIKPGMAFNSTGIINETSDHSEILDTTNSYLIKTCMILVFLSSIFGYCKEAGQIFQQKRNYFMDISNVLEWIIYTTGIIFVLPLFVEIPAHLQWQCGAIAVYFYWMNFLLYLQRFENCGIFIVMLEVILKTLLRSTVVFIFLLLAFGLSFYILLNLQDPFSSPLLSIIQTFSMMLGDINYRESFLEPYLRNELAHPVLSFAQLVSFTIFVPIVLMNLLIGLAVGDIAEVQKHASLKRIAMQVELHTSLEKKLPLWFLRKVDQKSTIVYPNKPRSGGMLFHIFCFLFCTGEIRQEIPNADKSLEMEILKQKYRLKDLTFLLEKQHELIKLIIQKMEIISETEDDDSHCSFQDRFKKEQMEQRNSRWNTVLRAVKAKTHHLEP

Chain of 5-hydroxytryptamine receptor 4 (Q13639 whole entry): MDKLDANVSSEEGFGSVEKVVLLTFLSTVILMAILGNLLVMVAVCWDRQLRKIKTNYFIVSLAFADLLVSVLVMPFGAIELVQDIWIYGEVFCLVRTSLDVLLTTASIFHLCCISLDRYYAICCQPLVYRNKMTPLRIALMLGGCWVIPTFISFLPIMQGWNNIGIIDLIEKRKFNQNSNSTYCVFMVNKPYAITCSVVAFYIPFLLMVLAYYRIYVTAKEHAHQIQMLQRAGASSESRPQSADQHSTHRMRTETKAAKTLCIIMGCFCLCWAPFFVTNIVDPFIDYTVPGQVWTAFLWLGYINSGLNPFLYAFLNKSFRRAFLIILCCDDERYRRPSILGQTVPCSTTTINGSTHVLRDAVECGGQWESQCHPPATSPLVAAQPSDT
Chain of Coagulation factor X (P00742 41-179 limits assumed): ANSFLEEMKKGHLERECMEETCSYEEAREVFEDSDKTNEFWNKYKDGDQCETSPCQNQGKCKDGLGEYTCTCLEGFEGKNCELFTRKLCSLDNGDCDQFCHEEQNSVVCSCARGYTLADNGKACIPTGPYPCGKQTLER
Chain of Coagulation factor X (P00742 235-488 limits assumed): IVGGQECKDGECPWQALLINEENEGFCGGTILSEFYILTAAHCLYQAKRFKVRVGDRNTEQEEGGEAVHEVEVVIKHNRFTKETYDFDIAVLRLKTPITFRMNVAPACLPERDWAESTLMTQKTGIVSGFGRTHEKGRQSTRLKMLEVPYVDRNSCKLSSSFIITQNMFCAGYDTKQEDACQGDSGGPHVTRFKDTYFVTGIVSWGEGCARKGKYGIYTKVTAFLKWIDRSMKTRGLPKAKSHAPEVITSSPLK

Row | SMILES | IC50 [1] [nM] | IC50 [2] [nM] | other results
1 | COc1cc(N)c(Cl)cc1C(=O)OCCN1CCN(c2ccccc2OC)CC1 | 64 |  | IC50 (Adenosine receptor A2b): 127 nM
2 | COc1cc(N)c(Cl)cc1C(=O)OCCN1CCN(c2ccc(Cl)cc2)CC1 | 715 |  | IC50 (Adenosine receptor A2b): 3660 nM
3 | COc1cc(N)c(Cl)cc1C(=O)OCCN1CCN(c2ccccc2Cl)CC1 | 296 |  | IC50 (Adenosine receptor A2b): 5830 nM
4 | COc1cc(N)c(Cl)cc1C(=O)OCCN1CCN(c2cccc(Cl)c2)CC1 | 162 |  | IC50 (Adenosine receptor A2b): 2080 nM
5 | Cc1cc(C(=O)Nc2ccc(-c3ccccc3C(F)(F)F)cc2)n(-c2cccc(C(=N)N)c2)n1 |  |  | IC50 (Coagulation factor X): 0.04 nM
6 | COc1cc(N)c(Cl)cc1C(=O)OCCN1CCN(c2ccccc2-c2cnccn2)CC1 | 1.4 |  | 
7 | Cc1c(=O)n(Cc2ccccc2)c(=O)n2cc(C(=O)NCc3ccc4[nH]ccc4c3)sc12 |  | 680 | 
8 | Cc1c(=O)n(Cc2ccccc2)c(=O)n2cc(C(=O)NCc3ccncc3)sc12 |  | 1170 | 
9 | Cc1ccc(CNC(=O)c2cn3c(=O)n(Cc4ccccc4)c(=O)c(C)c3s2)cc1 |  | 1370 | 
10 | Cc1c(=O)n(Cc2ccccc2)c(=O)n2cc(C(=O)NCc3ccc4nsnc4c3)sc12 |  | 1460 | 
11 | Cc1c(=O)n(Cc2ccccc2)c(=O)n2cc(C(=O)NCc3cccnc3)sc12 |  | 1570 | 
12 | COc1cc(CNC(=O)c2cn3c(=O)n(Cc4ccccc4)c(=O)c(C)c3s2)ccn1 |  | 1740 | 
13 | Cc1c(=O)n(Cc2ccccc2)c(=O)n2cc(C(=O)NCc3ccccc3)sc12 |  | 1880 | 
14 | Cc1c(=O)n(Cc2ccccc2)c(=O)n2cc(C(=O)NCc3ccc(F)cc3)sc12 |  | 2230 | 
15 | Cc1c(=O)n(Cc2ccccc2)c(=O)n2cc(C(=O)NCc3ccc(Cl)cc3)sc12 |  | 2230 | 
16 | Cc1c(=O)n(Cc2ccccc2)c(=O)n2cc(C(=O)NCc3ccccn3)sc12 |  | 3490 | 
17 | Cc1c(=O)n(Cc2ccccc2)c(=O)n2cc(C(=O)N3CC[C@@H](Oc4ccccc4C(F)(F)F)C3)sc12 |  | 100 | 
18 | Cc1c(=O)n(Cc2ccccc2)c(=O)n2cc(C(=O)N3CC[C@H](Oc4ccccc4C(F)(F)F)C3)sc12 |  | 150 | 
19 | Cc1c(=O)n(Cc2ccccc2)c(=O)n2cc(C(=O)N3CCC(Oc4ccccc4F)CC3)sc12 |  | 200 | 
20 | Cc1c(=O)n(Cc2ccccc2)c(=O)n2cc(C(=O)N3CCC(Oc4cccc(Cl)c4)CC3)sc12 |  | 200 | 
21 | Cc1c(=O)n(Cc2ccccc2)c(=O)n2cc(C(=O)N3CCC(c4ccccc4F)CC3)sc12 |  | 400 | 
22 | COc1cccc(N2CCN(CCOC(=O)c3cc(Cl)c(N)cc3OC)CC2)c1 | 3 |  | IC50 (Adenosine receptor A2b): 50 nM
23 | COc1ccc(N2CCN(CCOC(=O)c3cc(Cl)c(N)cc3OC)CC2)cc1 | 18 |  | IC50 (Adenosine receptor A2b): 250 nM
24 | COc1cc(N)c(Cl)cc1C(=O)OCCN1CCN(c2ccccc2F)CC1 | 17 |  | IC50 (Adenosine receptor A2b): 645 nM
25 | Cc1cc(C(=O)Nc2ccc(-c3ccccc3S(C)(=O)=O)cc2)n(-c2cccc(C(=N)N)c2)n1 |  |  | IC50 (Coagulation factor X): 0.008 nM
